# Source: US5785963A, “Polymeric hydantoin quaternary compounds, methods of making” (Lonza, Inc., priority 1996, dated 1998)
# Test system: bovine corneas
# Assay: BCOP (Bovine Corneal Opacity and Permeability) assay of ocular irritancy
# Description: A BCOP (Bovine Corneal Opacity and Permeability) assay was carried out on polyhydantoin quat compounds of the invention using a test system developed by Gautheron et al.L, "Bovine Corneal Opacity and Permeability Test: An in Vitro Assay of Ocular Irritancy" Fundamental and Applied Toxicology, 18: 442-449 (1992). The system measures two important properties which are predictive of irritation: corneal opacity and permeability. The following classification system for in vitro scores was used:
# from 25.1 to 55=moderate irritant
# from 55.1 and above=severe irritant
# Two polyhydantoin quaternary compounds, having formulas IV and V, were tested using known antimicrobial compositions, ethanol and a didecyl dimethyl ammonium chloride (Bardac 2250, Lonza Inc., Fair Lawn, N.J.), as controls. The test samples were prepared as 0.1% active solutions in distilled water.
# In this test, bovine corneas (from slaughterhouse animals) were mounted between two tissue culture media reservoirs in holders which function both as treatment chambers and as cuvettes for subsequent direct measurement of corneal opacity. […]
# After completion of the incubation period, the resultant damage was assessed both by quantitative measurement of opacity change, and by indirect measurement of corneal cell damage as evidenced by increased passage of fluorescein.
compound,measurement,value
"CCO [Ethanol, ethanol]",BCOP SCORE,68.7
